Test results published in patent publication US20260053801A1, “METHOD FOR TREATING AUTOPHAGY DEPENDENT CANCER WITH A PIKFYVE INHIBITOR” (The Regents of the University of Michigan, priority 2023, published 2026).
Entries after “also recorded” stand apart in the source; their conditions may differ.

Assays:
7940B cells [1] = test: RNA-seq in 7940B cells; assay type: cell-based, mouse; settings: eight-hour treatment
Experimental: RNA-seq libraries were prepared using 800 ng of total RNA. Ribosomal RNA were removed by enzymatic digestion of the specific probe-bound duplex rRNA, and then fragmented to around 200-300 bp with heat in fragmentation buffer (KAPA RNA Hyper+RiboErase HMR, Roche). Double-stranded cDNA was then synthesized by reverse transcription and underwent end-repair and ligation using New England Biolabs (NEB) adapters. Final library preparation was then prepared by amplification with 2×KAPA HiFI HotStart mix and NEB dual barcode. Library quality was measured on an Agilent 2100 Bioanalyzer (DNA 1000 chip) for concentration and product size. Paired-end libraries were sequenced with the Illumina NovaSeq, (2×151 nucleotide read length) with sequence coverage to 30-40 million paired reads. Reads were demultiplexed using Illumina's bcl2fastq conversion software v2.20. Transcripts were quantified by the alignment-free approach kallisto using index generated from mouse reference genome (mm10) and then summed to obtain gene level counts. Differential analysis was performed using limma-voom after TMM-normalization of gene level counts with calcNormFactors of edgeR. Genes with mean Transcripts Per Million (TPM) less than 1 in both control and treatment groups were considered as lowly expressed genes and excluded for differential analysis. […]

[2] = Ikonomov et al. 2019; cited from earlier work
[3] = tested on: autophagic flux in Panc 04.03 cells; test: GFP-LC3-RFP-LC3ΔG autophagic flux probe assay in Panc 04.03 cells; assay type: cell-based, human; settings: for autophagic flux induced by torin-1: 4-hour pre-treatment, then torin-1 100 nM 24 hours; for autophagic flux induced by torin-1 / basal autophagic flux: apilimod 300 nM, ESK981 1000 nM, chloroquine
Excerpt: (§1) Generation of the autophagic flux probe in 7940B, Panc 04.03, and iKRAS was done according to the original author's instructions. Kaizuka, T. et al., Mol Cell 64, 835-849, doi:10.1016/j.molcel.2016.09.037 (2016). Briefly, cells were infected with pMRX-IP-GFP-LC3-RFP-LC3DG, which was a gift from Noboru Mizushima (Addgene plasmid #84572; http://n2t.net/addgene:84572; RRID:Addgene_84572). Following puromycin selection, single-cell clones were expanded and genotyped to ensure the absence of homologous recombination between two LC3 fragments during retrovirus integration.
(§2) 15,000 cells were seeded in 96-well plates. After overnight incubation, cells were treated with the indicated compounds for 24 hours. […] Fluorescent signals were detected using the Infinite M1000 Pro plate reader (Tecan).

cell surface MHC-I = test: Flow cytometry of cell surface MHC-I in mouse cancer lines; assay type: cell-based; settings: pancreatic (KPC1361); extended to 4T1, B16-F10, LLC
mouse PIKfyve protein = molecular target: T1, mouse PIKfyve protein (Mus musculus, UniProt Q9Z1T6); test: Cellular Thermal Shift Assay (CETSA) in 7940B cells; assay type: binding; settings: 1000 nM, 2 hours
T1 construct: endogenous in cells; host or cells: 7940B (murine KPC pancreatic cancer cell line)
T1 sequence (Q9Z1T6 whole entry): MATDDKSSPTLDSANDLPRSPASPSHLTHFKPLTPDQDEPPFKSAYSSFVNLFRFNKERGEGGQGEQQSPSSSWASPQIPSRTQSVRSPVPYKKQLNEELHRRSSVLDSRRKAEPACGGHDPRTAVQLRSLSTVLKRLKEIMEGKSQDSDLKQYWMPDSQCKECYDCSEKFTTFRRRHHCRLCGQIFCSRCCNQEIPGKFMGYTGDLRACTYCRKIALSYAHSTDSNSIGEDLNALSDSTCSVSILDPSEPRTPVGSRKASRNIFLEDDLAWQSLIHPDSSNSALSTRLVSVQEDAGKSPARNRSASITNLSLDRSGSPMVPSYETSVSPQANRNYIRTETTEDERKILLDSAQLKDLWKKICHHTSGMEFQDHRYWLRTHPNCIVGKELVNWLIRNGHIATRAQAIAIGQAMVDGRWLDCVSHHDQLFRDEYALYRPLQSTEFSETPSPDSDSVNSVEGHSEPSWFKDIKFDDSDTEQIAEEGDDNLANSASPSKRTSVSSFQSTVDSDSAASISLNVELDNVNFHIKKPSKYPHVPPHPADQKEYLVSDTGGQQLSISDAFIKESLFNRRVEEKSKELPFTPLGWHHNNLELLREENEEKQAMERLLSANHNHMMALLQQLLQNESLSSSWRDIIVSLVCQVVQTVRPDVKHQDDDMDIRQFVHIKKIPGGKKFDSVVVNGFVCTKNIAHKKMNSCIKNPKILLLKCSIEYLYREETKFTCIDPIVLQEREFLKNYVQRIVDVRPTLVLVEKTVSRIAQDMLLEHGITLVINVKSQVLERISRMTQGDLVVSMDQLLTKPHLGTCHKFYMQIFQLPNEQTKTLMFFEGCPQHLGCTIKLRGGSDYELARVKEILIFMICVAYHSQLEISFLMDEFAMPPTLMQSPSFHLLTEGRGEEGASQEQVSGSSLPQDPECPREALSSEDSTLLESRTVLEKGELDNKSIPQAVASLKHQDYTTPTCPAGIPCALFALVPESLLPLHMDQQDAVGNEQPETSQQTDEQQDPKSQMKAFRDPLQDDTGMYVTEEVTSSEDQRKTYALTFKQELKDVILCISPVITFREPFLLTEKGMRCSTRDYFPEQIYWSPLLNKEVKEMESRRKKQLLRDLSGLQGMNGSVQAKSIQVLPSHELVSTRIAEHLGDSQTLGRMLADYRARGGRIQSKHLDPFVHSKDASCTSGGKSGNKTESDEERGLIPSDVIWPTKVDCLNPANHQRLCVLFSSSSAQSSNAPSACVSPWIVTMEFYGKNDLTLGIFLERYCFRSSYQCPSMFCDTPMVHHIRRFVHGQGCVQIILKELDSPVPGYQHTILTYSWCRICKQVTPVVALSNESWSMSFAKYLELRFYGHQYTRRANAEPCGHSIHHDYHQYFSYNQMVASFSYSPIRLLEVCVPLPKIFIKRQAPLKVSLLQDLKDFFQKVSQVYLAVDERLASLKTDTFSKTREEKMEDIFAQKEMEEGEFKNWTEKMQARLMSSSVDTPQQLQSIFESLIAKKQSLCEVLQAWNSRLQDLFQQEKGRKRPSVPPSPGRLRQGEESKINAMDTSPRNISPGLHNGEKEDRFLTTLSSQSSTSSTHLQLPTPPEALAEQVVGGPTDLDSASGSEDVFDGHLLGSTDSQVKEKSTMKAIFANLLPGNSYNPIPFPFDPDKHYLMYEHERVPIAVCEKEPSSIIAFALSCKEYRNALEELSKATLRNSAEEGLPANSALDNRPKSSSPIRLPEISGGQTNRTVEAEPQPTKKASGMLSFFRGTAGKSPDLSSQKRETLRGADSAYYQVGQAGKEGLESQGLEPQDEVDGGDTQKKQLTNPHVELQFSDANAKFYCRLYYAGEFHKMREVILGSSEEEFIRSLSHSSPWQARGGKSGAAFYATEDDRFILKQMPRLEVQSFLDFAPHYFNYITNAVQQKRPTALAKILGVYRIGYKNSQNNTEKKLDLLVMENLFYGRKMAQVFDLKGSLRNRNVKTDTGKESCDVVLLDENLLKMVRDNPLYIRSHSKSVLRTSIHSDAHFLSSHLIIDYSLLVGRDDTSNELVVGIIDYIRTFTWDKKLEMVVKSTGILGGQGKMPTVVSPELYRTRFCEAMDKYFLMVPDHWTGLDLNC
Experimental: CETSA was performed according to previously described protocols^71. Briefly, 7940B cells were seeded overnight and were subsequently treated with DMSO, ESK981 (1000 nM), or apilimod (1000 nM) for 2 hours. Cells were then harvested and made into single-cell suspensions of 1×10^6 cells each in […] of PBS containing protease inhibitors. The suspensions were then subjected to heating and cooling cycles (two cycles of 3-minute heating followed by 3-minute cooling at room temperature) using a thermal cycler. Cells were then lysed with three cycles of freeze-thawing in liquid nitrogen. Lysates were then analyzed using immunoblot analysis as previously described.

7940B cells [4] = test: Targeted lipidomics in 7940B cells; assay type: cell-based, mouse; settings: 24 hours; apilimod 100 nM, ESK981 1000 nM
Experimental: Sample preparation: Samples for lipidomics analyses were prepared according to the automatic dual-metabolite/lipid sample preparation workflow described in the Agilent application note 5994-5065EN. Briefly, 1 million cells were washed in PBS and lysed with 1:1 trifluoroethanol/water at room temperature. Lysates were transferred to microcentrifuged tubes, incubated for 10 minutes, and then centrifuged at 250×g for 30 seconds. Samples were then dehydrated under reduced pressure with no heat. […]
LC-MS/MS analysis: samples were analyzed on an Agilent 1290 Infinity II Bio LC ultra-high performed liquid chromatography (UPLC) system consisting of a high-pressure binary pump, multicolumn thermostat, and a temperature controlled multi-sampler. Samples were analyzed in randomized order on an Agilent 649C triple quadrupole mass spectrometer equipped with an Agilent Jet Stream Dual ESI ion source. Specifically, samples were analyzed with the reverse phase LC-MS/MS method reported in the Agilent application note 5994-3747EN. After acquisition, datasets were processed with MassHunter Quantitative analysis software and subsequently imported into Mass Profiler Professional (MPP) for chemometric analysis. […]

[5] = tested on: autophagic flux in 7940B cells; test: GFP-LC3-RFP-LC3ΔG autophagic flux probe assay in 7940B cells; assay type: cell-based, mouse; settings: for basal autophagic flux / autophagic flux induced by torin-1: apilimod 100 nM, ESK981 1000 nM, chloroquine 50 μM; for autophagic flux induced by torin-1: torin-1 100 nM
Excerpt: as §1, §2

7940B cells [6] = test: Targeted metabolomics in 7940B cells; assay type: cell-based, mouse; settings: apilimod 100 nM, ESK981 1000 nM
Experimental: Polar metabolites from samples treated in biological triplicates were extracted using 80% v/v methanol/water and normalized using protein quantification from an additional sample from each condition. Equal estimated amounts of metabolites were dried using a SpeedVac vacuum concentrator, reconstituted in 50% v/v methanol in water, and analyzed by LC-MS as previously described. Data were analyzed as previously described with the Agilent Masshunter Workstation Quantitative Analysis for QQQ version 10.1 Build 10.1.733.0. No post-detection normalization was performed to avoid assuming linearity of signal. Heatmaps were generated using the Morpheus Matrix Visualization and analysis tool (https://software.broadinstitute.org/morpheus).

[7] = tested on: autophagic flux in iKras cells; test: Autophagic flux probe assay in iKRAS 9805 cells; assay type: cell-based; settings: doxycycline withdrawal; apilimod 100 nM, ESK981 1000 nM, chloroquine 10 μM, 24 hours
Excerpt: as §1, §2

7940B cells [8] = test: Real-time oxygen consumption rate (Resipher) in 7940B cells; assay type: cell-based, mouse; settings: apilimod 100 nM, ESK981 1000 nM, bafilomycin 100 nM, chloroquine 100 μM
Experimental: Real-time monitoring of basal oxygen consumption rate was performed using a Resipher (Lucid Scientific). […] Immediately following treatment with an additional 50 μl of medium (for a total of 100 μl), OCR monitoring was started by placing the Resipher device on the cells, which was incubated at 37° C. and 5% CO2 for 24 hours.

[9] = tested on: 7 human and mouse PDAC cell lines; settings: 7 days, CellTiter-Glo
Experimental: Cells were plated into 96-well plates and incubated overnight at 37° C. in 5% CO2. The following day, a serial dilution of the indicated compounds was prepared in culture medium and added to the plate. The cells were then further incubated for 5 days (experiments involving MRTX1133 or trametinib) or 7 days (all other experiments). Subsequently, the CellTiter-Glo assay (Promega), was then performed according to the manufacturer's instructions. The luminescence signal was acquired using an Infinite M1000 Pro plate reader (Tecan), and the data were analyzed using GraphPad Prism 10 (GraphPad Software Inc.).

FASN and ACACA = test: qPCR of FASN and ACACA in PDAC cell lines treated with KRAS-MAPK inhibitors; assay type: cell-based; settings: eight hours; PDAC cell lines with the relevant KRAS mutation
Experimental: Total RNA was isolated from cells using the miRNeasy kit (Qiagen), and cDNA was synthesized from 1000 ng of total RNA using Maxima First Strand cDNA Synthesis Kit for RT-qPCR (Thermo Fisher Scientific). Quantitative real-time PCR was performed in triplicates using standard SYBR green reagents and protocols on a QuantStudio 5 Real-Time PCR system (Applied Biosystems). The target mRNA expression was quantified using the ΔΔCt method and normalized to ACTB (human) or Actb (murine) expression. All primers were designed using Primer 3 (http://frodo.wi.mit.edu/primer3/) and synthesized by Integrated DNA Technologies (Coralville).

[10] = tested on: FASN and ACACA transcripts in AsPC1 cells; settings: MRTX1133 100 nM, 24 hours; cited from earlier work
[11] = tested on: FASN and ACACA transcripts in AsPC1 cell-derived xenograft; settings: 30 mg/kg MRTX1133 6 hours prior to tumor collection; cited from earlier work
[12] = 24-hour treatment, labeled doses
[13] = MRTX1133 300 nM or trametinib 25 nM, 24 hours

Which gene expression changes (7940B cells [1]) does the source give for Cc1cccc(/C=N/Nc2cc(N3CCOCC3)nc(OCCc3ccccn3)n2)c1 [apilimod, N-[(E)-(3-methylphenyl)methylideneamino]-6-morpholin-4-yl-2-(2-pyridin-2-ylethoxy)pyrimidin-4-amine] here?
Its gene expression changes is “concordant gene expression changes”.

What about the most upregulated pathways (7940B cells [1]) of the same molecule?
The most upregulated pathways was “cholesterol homeostasis, MTORC1 signaling, and fatty acid metabolism”.

And the in vivo pharmacokinetics [2]?
Its in vivo pharmacokinetics is “poor in vivo pharmacokinetics”.

What about the “autophagic flux induced by torin-1” value [3] of the same molecule?
The value was “decreased”.

And the basal autophagic flux [3]?
Its basal autophagic flux is “decreased”.

What about the “cell surface expression of MHC-I” value (cell surface MHC-I) of the same molecule?
The value was “increased cell surface expression of MHC-I”.

And the “binding / stabilization of PIKfyve (CETSA)” value (mouse PIKfyve protein)?
Its value is “bind to mouse PIKfyve protein; also recorded: stabilization of PIKfyve”.

What about the cellular lipid landscape (7940B cells [4]) of the same molecule?
Its cellular lipid landscape is “induced significant changes in the cellular lipid landscape”.

What about the basal autophagic flux ([5]; 24 hours) of the same molecule?
Its basal autophagic flux is “decreased”.

What about the “autophagic flux induced by torin-1” value [5] of the same molecule?
The value was “decreased”.

What about the glycolytic metabolites (7940B cells [6]; eight hours) of the same molecule?
The glycolytic metabolites was “dramatic depletion of glycolytic metabolites”.

And the citrate level (7940B cells [6]; three hours)?
The citrate level was “decrease in citrate”.

Which “autophagic flux induced by torin-1” value [3] does the source give for CCN(CC)CCCC(C)Nc1ccnc2cc(Cl)ccc12 (centres unmarked) [chloroquine] here?
The value was “decreased”.

What about the basal autophagic flux [3] of the same molecule?
The basal autophagic flux was “decreased”.

What about the “increase in autophagic flux upon Kras OFF” value [7] of the same molecule?
Its value is “attenuated”.

And the “OCR through 24 hours of treatment” value (7940B cells [8])?
The value was “significantly decreased OCR”.

What about the “half-maximal inhibitory concentrations (IC50), cell viability” value [9] of the same molecule?
The value was “much higher”.

What about the basal autophagic flux ([5]; 24 hours) of the same molecule?
The basal autophagic flux was “decreased”.

What about the “autophagic flux induced by torin-1” value [5] of the same molecule?
The value was “decreased”.

Which “autophagy upon acute KRAS G12D inhibition” value [3, 12] does the source give for C#Cc1c(F)ccc2cc(O)cc(-c3ncc4c(N5CC6CCC(C5)N6)nc(OC[C@@]56CCCN5C[C@H](F)C6)nc4c3F)c12 [MRTX1133] here?
The value was “upregulate autophagy”.

What about the “autophagic flux upon KRAS-MAPK inhibition” value [3, 13] of the same molecule?
Its value is “induced autophagic flux”.

And the “transcription of FASN and ACACA” value (FASN and ACACA)?
Its value is “decreased transcription of FASN and ACACA”.

What about the “autophagy upon acute KRAS G12D inhibition” value [5, 12] of the same molecule?
Its value is “upregulate autophagy”.

What about the “autophagic flux upon KRAS-MAPK inhibition” value [5, 13] of the same molecule?
Its value is “induced autophagic flux”.

What about the “FASN and ACACA transcripts in vitro” value [10] of the same molecule?
Its value is “decreases FASN and ACACA transcripts”.

And the “FASN and ACACA transcripts in vivo” value [11]?
The value was “decreases FASN and ACACA transcripts”.
